# According to US20240122212A1 (SUNTORY HOLDINGS LIMITED, priority 2020, published 2024):
# Biological target: T1, sweet taste receptor (T1R2/T1R3) (Homo sapiens, UniProt Q7RTX0+Q8TE23)
# T1 construct: endogenous in cells; host or cells: taste cells in the mouths of 3 trained human panelists (in vivo spitting test)
# T1 sequence (Q8TE23 20-839): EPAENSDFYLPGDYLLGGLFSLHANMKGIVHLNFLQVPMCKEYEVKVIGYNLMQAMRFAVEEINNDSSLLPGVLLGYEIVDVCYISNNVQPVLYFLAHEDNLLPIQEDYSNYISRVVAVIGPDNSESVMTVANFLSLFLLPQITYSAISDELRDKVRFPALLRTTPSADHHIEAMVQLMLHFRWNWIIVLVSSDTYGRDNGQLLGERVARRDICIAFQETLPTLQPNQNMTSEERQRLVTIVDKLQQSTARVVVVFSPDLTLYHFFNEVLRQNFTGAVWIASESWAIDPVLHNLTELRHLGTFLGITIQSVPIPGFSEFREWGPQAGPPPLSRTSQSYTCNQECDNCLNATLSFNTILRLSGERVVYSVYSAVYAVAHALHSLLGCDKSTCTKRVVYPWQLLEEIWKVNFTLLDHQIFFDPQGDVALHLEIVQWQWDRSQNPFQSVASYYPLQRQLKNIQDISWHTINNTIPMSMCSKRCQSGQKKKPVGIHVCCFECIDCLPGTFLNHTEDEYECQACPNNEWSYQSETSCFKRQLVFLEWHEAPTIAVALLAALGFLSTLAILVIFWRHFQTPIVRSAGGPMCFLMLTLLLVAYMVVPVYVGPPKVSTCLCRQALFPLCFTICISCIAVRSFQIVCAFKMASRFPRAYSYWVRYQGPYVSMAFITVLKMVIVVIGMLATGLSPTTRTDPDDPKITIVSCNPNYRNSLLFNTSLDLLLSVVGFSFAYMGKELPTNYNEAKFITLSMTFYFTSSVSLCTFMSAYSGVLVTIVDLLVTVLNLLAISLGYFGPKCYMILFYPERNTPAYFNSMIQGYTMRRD
# T1 sequence (Q7RTX0 21-852): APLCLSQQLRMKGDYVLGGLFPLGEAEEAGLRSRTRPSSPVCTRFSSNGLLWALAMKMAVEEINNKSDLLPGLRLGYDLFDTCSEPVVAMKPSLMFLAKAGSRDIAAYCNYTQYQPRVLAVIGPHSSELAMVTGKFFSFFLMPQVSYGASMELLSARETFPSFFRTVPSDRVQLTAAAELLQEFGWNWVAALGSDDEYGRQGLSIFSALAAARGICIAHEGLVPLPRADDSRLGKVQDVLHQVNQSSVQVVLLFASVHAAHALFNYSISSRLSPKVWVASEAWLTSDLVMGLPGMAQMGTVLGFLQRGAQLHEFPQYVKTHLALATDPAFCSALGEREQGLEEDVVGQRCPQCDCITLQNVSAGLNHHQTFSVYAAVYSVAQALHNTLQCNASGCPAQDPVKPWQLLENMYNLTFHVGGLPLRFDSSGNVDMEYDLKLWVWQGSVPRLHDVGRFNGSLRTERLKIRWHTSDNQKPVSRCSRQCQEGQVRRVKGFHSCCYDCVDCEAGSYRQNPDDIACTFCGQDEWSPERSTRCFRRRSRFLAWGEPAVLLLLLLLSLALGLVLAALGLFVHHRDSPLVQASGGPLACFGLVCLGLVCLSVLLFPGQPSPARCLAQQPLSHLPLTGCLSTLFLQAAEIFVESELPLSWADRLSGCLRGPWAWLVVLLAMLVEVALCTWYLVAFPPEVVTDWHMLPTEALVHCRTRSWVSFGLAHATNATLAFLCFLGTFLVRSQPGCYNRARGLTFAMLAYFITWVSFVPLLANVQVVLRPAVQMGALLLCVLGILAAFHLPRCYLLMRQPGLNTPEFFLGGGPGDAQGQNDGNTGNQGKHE
# Assay: Sensory evaluation of sweetness intensity (VAS) in the co-presence of sweet taste receptor inhibitor lactisole (Example 5)
# Format: in vivo
# Source text: Whether or not a certain sweet substance can trigger a sweetness response even if a sweetness response through the sweet taste receptor T1R2/T1R3 is inhibited may be determined by, for instance, measuring, by sensory evaluation or cell assay, the sweetness intensity of a solution (control solution), in which only the above sweet substance has been dissolved, and the sweetness intensity (remaining sweetness intensity) of a solution (test solution), in which a sweet taste receptor T1R2/T1R3 inhibitor (e.g., lactisole, gymnemic acid) is added for inhibiting a sweetness response through the sweet taste receptor T1R2/T1R3 to the control solution; and by comparing the sweetness intensity of the control solution and the sweetness intensity of the test solution.
# The evaluation was carried out by those (3 persons) who received sensory trainings as panelists. […] Additionally, solutions having the same composition as sample solutions 1, 2, 3, and 4 except that lactisole was not added were used as control solutions 1, 2, 3, and 4. The sensory evaluation was carried out by spitting test. The sweetness intensity was rated by the VAS scale and calculated with the intensity of a solution to which lactisole was not added being 100% and the sweetness intensity of a solution to which lactisole was added as a relative value (%). The sweetness inhibitory effect by lactisole was verified by this.
smiles,measurement,setting,value
O=C[C@@H](O)[C@H](O)[C@H](O)CO [D-Arabinose],"remaining sweetness intensity when 100 ppm of lactisole was added, compared with sucrose",100 ppm lactisole,equal to or more than that of sucrose
same,Sweetness intensity residual ratio (%) with addition of 100 ppm lactisole,"lactisole-free solution = 100%, sucrose 8 w/v %, sucralose 149 ppm, D- or L-arabinose 13.3 w/v %, VAS, average of n=3",42.47%
